pIC50: −log10 of the molar value.
What was measured:
Assay in all cases: Cell proliferation assay (Alamar Blue)
Assay type in all cases: cell-based
[1] = test system: SNU886; details: SNU-886, 144 h; SNU886 liver cancer cell line; 6 days culture
Protocol: (§1) 1. Instruments and Materials • Thermo 311 CO2 incubator; Haier biosafety cabinet; Molecular Devices microplate reader; Xiangyi brand L530 desktop low speed centrifuge; Olympus IX51 inverted fluorescence microscope, DMEM, RPMI 1640, MEM, DMEM/F12 1:1 medium, Fetal bovine serum, 0.25% trypsin solution, phosphate buffer (Thermo Fisher Shanghai Co., Ltd.); sigma dimethyl sulfoxide (DMSO), resazurin; 54 commercial tumor cell lines (including 26 liver cancer cell lines). Experimental drugs: compounds 1-12 and active drug Linifanib; chemotherapeutic drug Doxorubicin (HY-15142; Shanghai Qianyuan Biomedical Technology Co., Ltd.).
(§2) 2. Experimental Methods • 2.1 Cultivation of Different Cell Lines • 54 cell lines were cultured in a culture medium containing fetal bovine serum and placed in a 5% CO2 incubator at 37° C. for incubation. The cells were all grown in an adherent state, and the growth was observed under an inverted microscope, and subculture was performed when the cell confluence rate reached 80%-90%. The proportion and quantity of passage were determined by experimental needs. The ratio of subculture of this cell line was generally 1:2^˜1:3. • 2.2 Inhibition Effect on the Proliferation of Different Tumor Cell Lines • Cell test: 54 cell lines in logarithmic growth phase were inoculated in 96-well culture plates at 500^˜1×10^4/well (the optimal seeding density of each cell line was determined in pre-experiment), After incubating at 37° C. for 4 h in a 5% CO2 humidification incubator, added 10 μL of compounds 1-12 or Linifanib to each well, and tested 9 drug concentration gradients for each compound (diluted from the highest concentration of the test by 3.16 times). The solubility of each compound was different at a starting concentration of 100 or 30 μM, respectively. The QC reference compound Doxorubicin was added simultaneously to each cell line test, and the final drug concentrations were 10, 3.16, 1, 0.31, 0.1, 0.03, 0.01, 0.003, and 0.001 μM, respectively. In addition, a positive control group (100% inhibition) and a negative control group (0% inhibition) were set at the same time. The drug group was repeated for 2 wells per concentration, and the positive control group and the negative control group were repeated for 6 wells. After the culture was continued for 6 days in the incubator, AlamarBlue test operation was followed; • AlamarBlue test procedure: Incubated with 10 μL of AlamarBlue reagent per well for 1-4 h, shook for 1-2 min, MD microplate reader EX: 560 nm, EM: 590 nm wavelength to measure fluorescence, recorded the results, calculated the cell inhibition rate of the compound of the invention. Cell inhibition rate (%)=(A0% inhibition−A administration)/(A0% inhibition−A100% inhibition)×100%, and then using the method of nonlinear regression using GraphPad Prism 5.0 or MATILAB software (usually using four parameters) to graph and obtain a drug dose response curve to obtain an IC50 value of the compound of the present invention acting on a cancer cell line.

[2] = test system: K562; details: Homo sapiens, 144 h; K562 tumor cell line; 6 days culture
Protocol: as §1, §2

[3] = test system: SNU423; details: Homo sapiens, SNU-423, 144 h; SNU423 liver cancer cell line; 6 days culture
Protocol: as §1, §2

[4] = test system: LNCAP-clone-FGC; details: Homo sapiens, 144 h; LNCAP-clone-FGC tumor cell line; 6 days culture
Protocol: as §1, §2

[5] = test system: HLE; details: Homo sapiens, 144 h; HLE liver cancer cell line; 6 days culture
Protocol: as §1, §2

[6] = test system: JHH6; details: 144 h; JHH6 liver cancer cell line; 6 days culture
Protocol: as §1, §2

[7] = test system: SNU761; details: 144 h; SNU761 liver cancer cell line; 6 days culture
Protocol: as §1, §2

[8] = test system: SNU398; details: Homo sapiens, SNU-398, 144 h; SNU398 liver cancer cell line; 6 days culture
Protocol: as §1, §2

[9] = test system: KASUMI-1; details: Homo sapiens, 144 h; KASUMI-1 (leukemia cells); 6 days culture
Protocol: as §1, §2

[10] = test system: T.T; details: Homo sapiens, TT, 144 h; T.T tumor cell line; 6 days culture
Protocol: as §1, §2

[11] = test system: MDA-MB-231; details: Homo sapiens, 144 h; MDA-MB-231 tumor cell line; 6 days culture
Protocol: as §1, §2

[12] = test system: AN3CA; details: Homo sapiens, AN3-CA, 144 h; AN3CA tumor cell line; 6 days culture
Protocol: as §1, §2

[13] = test system: HUH6; details: Homo sapiens, HuH-6, 144 h; HUH6 liver cancer cell line; 6 days culture
Protocol: as §1, §2

[14] = test system: NCI-H1648; details: Homo sapiens, 144 h; NCI-H1648 tumor cell line; 6 days culture
Protocol: as §1, §2

[15] = test system: SW620; details: Homo sapiens, SW-620, 144 h; SW620 tumor cell line; 6 days culture
Protocol: as §1, §2

[16] = test system: JHH7; details: 144 h; JHH7 liver cancer cell line; 6 days culture
Protocol: as §1, §2

[17] = test system: HUH1; details: Homo sapiens, HuH-1, 144 h; HUH1 liver cancer cell line; 6 days culture
Protocol: as §1, §2

[18] = test system: SNU739; details: SNU-739, 144 h; SNU739 liver cancer cell line; 6 days culture
Protocol: as §1, §2

[19] = test system: LC-2-ad; details: Homo sapiens, 144 h; LC-2-ad tumor cell line; 6 days culture
Protocol: as §1, §2

[20] = test system: NCI-H716; details: Homo sapiens, 144 h; NCI-H716 tumor cell line; 6 days culture
Protocol: as §1, §2

[21] = test system: DLD1; details: Homo sapiens, DLD-1, 144 h; DLD1 tumor cell line; 6 days culture
Protocol: as §1, §2

[22] = test system: SNU387; details: Homo sapiens, SNU-387, 144 h; SNU387 liver cancer cell line; 6 days culture
Protocol: as §1, §2

[23] = test system: TE-15; details: Homo sapiens, 144 h; TE-15 tumor cell line; 6 days culture
Protocol: as §1, §2

[24] = test system: TE-6; details: Homo sapiens, 144 h; TE-6 tumor cell line; 6 days culture
Protocol: as §1, §2

[25] = test system: NCI-H661; details: Homo sapiens, 144 h; NCI-H661 tumor cell line; 6 days culture
Protocol: as §1, §2

[26] = test system: Alexander cells; details: 144 h; Alexander cells liver cancer cell line; 6 days culture
Protocol: as §1, §2

[27] = test system: KM12; details: Homo sapiens, 144 h; KM12 tumor cell line; 6 days culture
Protocol: as §1, §2

[28] = test system: HLF; details: 144 h; HLF liver cancer cell line; 6 days culture
Protocol: as §1, §2

Compound | pIC50 [1] | pIC50 [2] | pIC50 [3] | pIC50 [4] | pIC50 [5] | pIC50 [6] | pIC50 [7] | pIC50 [8] | pIC50 [9] | pIC50 [10] | pIC50 [11] | pIC50 [12] | pIC50 [13] | pIC50 [14] | pIC50 [15] | pIC50 [16] | pIC50 [17] | pIC50 [18] | pIC50 [19] | pIC50 [20] | also measured
Cc1ccc(F)c(NC(=O)Nc2ccc(-c3cccc4[nH]nc(NC(=O)C[C@H](N)C(=O)N[C@@H](CCC(=O)O)C(=O)O)c34)cc2)c1 [Compound 1] | 5.14 | 4.76 | 4.59 | 4.81 | 5.55 | 5.18 | 4.90 | 5.76 | 7.70 | 5.03 | 5.12 | 6.47 | 4.28 | 4.99 | 5.40 | 5.81 | 5.33 | 5.12 | 5.45 | 5.26 | pIC50 [21]: 4.73; pIC50 [22]: 4.65; pIC50 [23]: 5.53; pIC50 [24]: 4.98; pIC50 [25]: 4.69; pIC50 [26]: 5.40; pIC50 [27]: 5.43; pIC50 [28]: 5.28
Cc1ccc(F)c(NC(=O)Nc2ccc(-c3cccc4[nH]nc(NC(=O)C[C@H](N)C(=O)N[C@@H](CCC(=O)N[C@@H](CCC(=O)N[C@@H](CCC(=O)N[C@@H](CCC(=O)O)C(=O)O)C(=O)O)C(=O)O)C(=O)O)c34)cc2)c1 [Compound 2] | 4.77 | 4.53 | 4.48 | 4.58 | 5.19 | 4.96 | 4.71 | 5.33 | 7.30 | 4.77 | 4.91 | 6.14 | 4.10 | 4.67 | 5.17 | 5.37 | 5.14 | 4.95 | 5.20 | 4.97 | pIC50 [21]: 4.54; pIC50 [22]: 4.32; pIC50 [23]: 5.14; pIC50 [24]: 4.56; pIC50 [25]: 4.43; pIC50 [26]: 5.15; pIC50 [27]: 5.26; pIC50 [28]: 4.97

Reference: patent US11712434B2, “Compound having anti-cancer effect, and preparation method therefor and use thereof” (3D MEDICINES (BEIJING) CO., LTD., priority 2016, dated 2023)
